Experimental data from article PMC10698694 (ACS chemical biology, 2023).

Experiments:
Experiment in all cases: AlphaScreen competition
Format in all cases: binding
[1] = molecular target: BPTF bromodomain (BPTF BD) (Homo sapiens, UniProt Q12830)
[2] = molecular target: CECR2 bromodomain (CECR2 BD) (Homo sapiens, UniProt Q9BXF3)
[3] = molecular target: T1, BRD9 bromodomain (BRD9 BD) (Homo sapiens, UniProt Q9H8M2)
T1 sequence (Q9H8M2 134-239 limits assumed): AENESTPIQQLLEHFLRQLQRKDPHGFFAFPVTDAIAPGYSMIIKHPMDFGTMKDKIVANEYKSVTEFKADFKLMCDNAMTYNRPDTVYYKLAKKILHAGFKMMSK

SMILES	IC50 [1] [nM]	IC50 [2] [nM]	IC50 [3] [nM]
CS(=O)(=O)c1nc(NCCCn2cccn2)cc(-c2ccc(OCCCN3CCN(CCCCCCOc4cccc5c4C(=O)N(C4CCC(=O)NC4=O)C5=O)CC3)cc2)n1 (stereo not shown) [compound 8, 4-((6-(4-(3-(4-(6-((3-(1H-Pyrazol-1-yl)propyl)amino)-2-(methylsulfonyl)pyrimidin-4-yl)phenoxy)propyl)piperazin-1-yl)hexyl)oxy)-2-(2,6-dioxopiperidin-3-yl)isoindoline-1,3-dione]	146 ± 12	24	844
CS(=O)(=O)c1nc(NCCCn2cccn2)cc(-c2ccc(OCCCN3CCN(CCOCCOCCOc4cccc5c4C(=O)N(C4CCC(=O)NC4=O)C5=O)CC3)cc2)n1 (stereo not shown) [compound 9, 4-(2-(2-(2-(4-(3-(4-(6-((3-(1H-Pyrazol-1-yl)propyl)amino)-2-(methylsulfonyl)pyrimidin-4-yl)phenoxy)propyl)piperazin-1-yl)ethoxy)ethoxy)ethoxy)-2-(2,6-dioxopiperidin-3-yl)-isoindoline-1,3-dione]	267 ± 8	33	996
CN(CCCOc1ccc(-c2cc(NCCCn3cccn3)nc(S(C)(=O)=O)n2)cc1)CCOCCOCCOc1cccc2c1C(=O)N(C1CCC(=O)NC1=O)C2=O (stereo not shown) [compound 10, 4-(2-(2-(2-((3-(4-(6-((3-(1H-Pyrazol-1-yl)propyl)amino)-2-(methylsulfonyl)pyrimidin-4-yl)phenoxy)propyl)(methyl)-amino)ethoxy)ethoxy)ethoxy)-2-(2,6-dioxopiperidin-3-yl)-isoindoline-1,3-dione]	360		
